Measured values reported in ChEMBL document CHEMBL5344402, “A multi-target directed ligands strategy for the treatment of Alzheimer's disease: Dimethyl fumarate plus Tranilast modified Dithiocarbate as AChE inhibitor and Nrf2 activator” (Eur J Med Chem, 2022).

Columns and labels:
[1] = target: Acetylcholinesterase (Electrophorus electricus, UniProt O42275); assay: Inhibition of electric eel AChE using acetylthiocholine iodide as substrate preincubated for 5 mins followed by substrate addition by DTNB reagent based Ellman's method
[2] = target: Cholinesterase (Equus caballus) (UniProt P81908); assay: Inhibition of equine serum BuChE using butyrylthiocholine iodide as substrate at 10 uM preincubated for 5 mins followed by substrate addition by DTNB reagent based Ellman's method relative to control; type: cell-free
[3] = target: Acetylcholinesterase (Homo sapiens, UniProt P22303); assay: Inhibition of human AChE using acetylthiocholine iodide as substrate preincubated for 5 mins followed by substrate addition by DTNB reagent based Ellman's method
[4] = target: Cholinesterase (Homo sapiens) (UniProt P06276); assay: Inhibition of human BuChE using butyrylthiocholine iodide as substrate at 10 uM preincubated for 5 mins followed by substrate addition by DTNB reagent based Ellman's method relative to control
[5] = in vitro; conditions: PAMPA

Chain of Acetylcholinesterase (Electrophorus electricus, UniProt O42275) (O42275 whole entry): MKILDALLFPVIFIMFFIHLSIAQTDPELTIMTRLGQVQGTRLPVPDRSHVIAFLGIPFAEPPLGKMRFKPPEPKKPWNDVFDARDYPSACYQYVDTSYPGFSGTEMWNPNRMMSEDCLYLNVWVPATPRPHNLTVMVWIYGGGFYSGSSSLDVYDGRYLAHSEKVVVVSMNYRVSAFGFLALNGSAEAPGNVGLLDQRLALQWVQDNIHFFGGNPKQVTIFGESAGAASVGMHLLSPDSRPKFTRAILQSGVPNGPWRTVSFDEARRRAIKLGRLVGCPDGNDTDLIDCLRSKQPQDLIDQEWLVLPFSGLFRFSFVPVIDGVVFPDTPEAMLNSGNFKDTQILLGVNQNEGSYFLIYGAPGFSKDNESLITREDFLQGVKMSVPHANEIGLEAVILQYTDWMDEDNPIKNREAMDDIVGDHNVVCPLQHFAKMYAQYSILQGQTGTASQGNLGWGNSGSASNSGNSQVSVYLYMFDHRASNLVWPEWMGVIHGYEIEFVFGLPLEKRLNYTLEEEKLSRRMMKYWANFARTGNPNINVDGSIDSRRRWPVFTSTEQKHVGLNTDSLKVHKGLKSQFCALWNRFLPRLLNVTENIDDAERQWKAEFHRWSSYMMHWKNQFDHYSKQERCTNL
Chain of Acetylcholinesterase (Homo sapiens, UniProt P22303) (P22303 whole entry): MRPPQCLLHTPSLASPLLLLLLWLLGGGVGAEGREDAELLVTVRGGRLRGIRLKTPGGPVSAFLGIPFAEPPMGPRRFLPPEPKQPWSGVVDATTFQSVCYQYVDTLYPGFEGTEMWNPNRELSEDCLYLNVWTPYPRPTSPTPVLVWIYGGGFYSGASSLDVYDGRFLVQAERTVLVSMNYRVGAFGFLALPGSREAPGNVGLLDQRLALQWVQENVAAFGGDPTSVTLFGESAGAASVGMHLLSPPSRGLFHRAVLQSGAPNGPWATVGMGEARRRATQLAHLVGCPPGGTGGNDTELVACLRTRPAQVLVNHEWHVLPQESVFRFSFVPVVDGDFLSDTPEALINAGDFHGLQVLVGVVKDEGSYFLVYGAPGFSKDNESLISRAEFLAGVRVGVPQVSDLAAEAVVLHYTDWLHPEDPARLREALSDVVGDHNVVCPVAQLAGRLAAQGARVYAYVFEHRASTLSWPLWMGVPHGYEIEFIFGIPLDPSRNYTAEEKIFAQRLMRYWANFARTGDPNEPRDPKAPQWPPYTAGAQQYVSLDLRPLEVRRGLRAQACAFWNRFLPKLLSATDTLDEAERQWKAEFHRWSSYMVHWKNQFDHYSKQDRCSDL
Chain of Cholinesterase (Homo sapiens) (P06276 whole entry): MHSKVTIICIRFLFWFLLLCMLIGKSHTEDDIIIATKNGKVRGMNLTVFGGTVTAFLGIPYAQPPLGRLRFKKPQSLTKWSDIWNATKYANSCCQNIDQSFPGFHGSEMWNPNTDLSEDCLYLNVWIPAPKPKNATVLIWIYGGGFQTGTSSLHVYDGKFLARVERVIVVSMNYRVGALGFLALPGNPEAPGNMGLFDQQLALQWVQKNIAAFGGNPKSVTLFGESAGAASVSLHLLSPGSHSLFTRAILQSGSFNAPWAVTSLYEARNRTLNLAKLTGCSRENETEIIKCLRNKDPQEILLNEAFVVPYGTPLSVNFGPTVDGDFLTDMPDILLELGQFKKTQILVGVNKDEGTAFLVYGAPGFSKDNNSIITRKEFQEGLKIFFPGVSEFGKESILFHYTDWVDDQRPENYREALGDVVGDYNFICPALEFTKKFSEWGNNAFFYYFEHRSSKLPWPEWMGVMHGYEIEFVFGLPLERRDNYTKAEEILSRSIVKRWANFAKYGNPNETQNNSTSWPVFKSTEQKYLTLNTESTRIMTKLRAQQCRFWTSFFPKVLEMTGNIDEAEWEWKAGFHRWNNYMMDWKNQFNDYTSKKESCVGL
Chain of Cholinesterase (Equus caballus) (P81908 whole entry): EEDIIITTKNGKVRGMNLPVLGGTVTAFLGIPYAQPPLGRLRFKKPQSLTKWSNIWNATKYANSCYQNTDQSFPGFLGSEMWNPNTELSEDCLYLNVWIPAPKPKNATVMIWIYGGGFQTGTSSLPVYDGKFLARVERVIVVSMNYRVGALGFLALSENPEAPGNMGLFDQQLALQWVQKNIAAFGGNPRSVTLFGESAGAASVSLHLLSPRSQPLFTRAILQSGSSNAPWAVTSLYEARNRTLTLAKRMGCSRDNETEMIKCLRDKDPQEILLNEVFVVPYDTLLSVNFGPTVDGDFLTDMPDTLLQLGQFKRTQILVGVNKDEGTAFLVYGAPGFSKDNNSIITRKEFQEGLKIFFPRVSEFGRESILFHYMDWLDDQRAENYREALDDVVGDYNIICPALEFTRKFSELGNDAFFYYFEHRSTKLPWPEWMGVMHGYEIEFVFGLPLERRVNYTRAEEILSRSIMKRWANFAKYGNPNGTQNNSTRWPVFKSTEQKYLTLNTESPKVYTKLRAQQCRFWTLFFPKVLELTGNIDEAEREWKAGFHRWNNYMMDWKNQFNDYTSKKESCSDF

Compound	IC50 [1]	inhibition [2]	IC50 [3]	inhibition [4]	Papp at 18 h [5]
COC(=O)/C=C/C(=O)Nc1cccc(OCCSC(=S)N2CCCCC2)c1	2560 nM	12.8%	1390 nM	6.83%	21.3 ×10⁻⁶ cm/s
COC(=O)/C=C/C(=O)Nc1cccc(OCCCCSC(=S)N2CCC(N3CCCCC3)CC2)c1	12700 nM	5.6%			
COC(=O)/C=C/C(=O)Nc1cccc(OCCCCSC(=S)N2CCCCC2)c1	370 nM	< 5%	210 nM	< 5%	15.5 ×10⁻⁶ cm/s
COC(=O)/C=C/C(=O)Nc1ccc(OCCCCSC(=S)N2CCCCC2C)cc1 (configuration not stated)	490 nM	18%	380 nM	< 5%	12.7 ×10⁻⁶ cm/s
COC(=O)/C=C/C(=O)Nc1cccc(OCCCCSC(=S)N2CCCC2)c1	8140 nM	8.8%	6040 nM	< 5%	10.4 ×10⁻⁶ cm/s
COC(=O)/C=C/C(=O)Nc1cccc(OCCCCSC(=S)N2C(C)CCCC2C)c1 (configuration not stated)	16500 nM	7.14%			
COC(=O)/C=C/C(=O)Nc1cccc(OCCCCSC(=S)N2CCN(C)CC2)c1	91600 nM	> 5%			
CC(=O)[C@H]1CC[C@H]2[C@@H]3CCC4=CC(=O)CC[C@]4(C)[C@H]3CC[C@]12C [PROGESTERONE]					11.2 ×10⁻⁶ cm/s
